What was measured:
Min Elp3 [1] = target: T1, Min Elp3 (Methanocaldococcus infernus, UniProt D5VRB9, E207A); test: microscale thermophoresis, hill fit; format: binding; conditions: anaerobic, pH 7.5, room temperature; His-tagged protein labelled with iFluor 647-Tris NTA; no tRNA
T1 construct: gene Metin_0452; E. coli codon-optimized gene, N-terminal 6xHis tag with TEV site (pET28a-tev), tag kept for MST; E. coli BL21(DE3) host with isc operon; anaerobically purified, [4Fe-4S] cluster chemically reconstituted

Min Elp3 [2] = target: T2, Min Elp3 (Methanocaldococcus infernus, UniProt D5VRB9, M156W); test: microscale thermophoresis, hill fit; format: binding; conditions: anaerobic, pH 7.5, room temperature; His-tagged protein labelled with iFluor 647-Tris NTA; no tRNA
T2 construct: gene Metin_0452; E. coli codon-optimized gene, N-terminal 6xHis tag with TEV site (pET28a-tev), tag kept for MST; E. coli BL21(DE3) host with isc operon; anaerobically purified, [4Fe-4S] cluster chemically reconstituted

Min Elp3 [3] = target: T3, Min Elp3 (Methanocaldococcus infernus, UniProt D5VRB9, Y304A); test: microscale thermophoresis, hill fit; format: binding; conditions: anaerobic, pH 7.5, room temperature; His-tagged protein labelled with iFluor 647-Tris NTA; no tRNA
T3 construct: gene Metin_0452; E. coli codon-optimized gene, N-terminal 6xHis tag with TEV site (pET28a-tev), tag kept for MST; E. coli BL21(DE3) host with isc operon; anaerobically purified, [4Fe-4S] cluster chemically reconstituted

Min Elp3 [4] = target: T4, Min Elp3 (Methanocaldococcus infernus, UniProt D5VRB9); test: microscale thermophoresis, hill fit; format: binding; conditions: anaerobic, pH 7.5, room temperature; His-tagged protein labelled with iFluor 647-Tris NTA; no tRNA
T4 construct: gene Metin_0452; E. coli codon-optimized gene, N-terminal 6xHis tag with TEV site (pET28a-tev), tag kept for MST; E. coli BL21(DE3) host with isc operon; anaerobically purified, [4Fe-4S] cluster chemically reconstituted
T4 sequence (D5VRB9 1-534): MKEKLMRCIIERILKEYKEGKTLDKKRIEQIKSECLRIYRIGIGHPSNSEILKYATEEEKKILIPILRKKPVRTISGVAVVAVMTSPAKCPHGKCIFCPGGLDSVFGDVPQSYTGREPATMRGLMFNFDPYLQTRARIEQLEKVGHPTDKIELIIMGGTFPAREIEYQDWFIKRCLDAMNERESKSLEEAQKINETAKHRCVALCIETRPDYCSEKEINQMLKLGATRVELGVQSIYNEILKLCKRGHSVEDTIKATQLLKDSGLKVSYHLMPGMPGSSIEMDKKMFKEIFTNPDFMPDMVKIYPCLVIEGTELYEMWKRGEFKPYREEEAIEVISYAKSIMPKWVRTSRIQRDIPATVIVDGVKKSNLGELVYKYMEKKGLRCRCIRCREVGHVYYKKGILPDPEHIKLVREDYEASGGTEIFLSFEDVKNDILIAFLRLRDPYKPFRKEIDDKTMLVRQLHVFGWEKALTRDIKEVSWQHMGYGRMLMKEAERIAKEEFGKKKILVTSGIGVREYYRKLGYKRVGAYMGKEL

Min Elp3 [5] = target: T5, Min Elp3 (Methanocaldococcus infernus, UniProt D5VRB9, K302A); test: microscale thermophoresis, hill fit; format: binding; conditions: anaerobic, pH 7.5, room temperature; His-tagged protein labelled with iFluor 647-Tris NTA; no tRNA
T5 construct: gene Metin_0452; E. coli codon-optimized gene, N-terminal 6xHis tag with TEV site (pET28a-tev), tag kept for MST; E. coli BL21(DE3) host with isc operon; anaerobically purified, [4Fe-4S] cluster chemically reconstituted

Min Elp3 WT = target: T6, Min Elp3 WT (Methanocaldococcus infernus, UniProt D5VRB9 1-534); test: EMSA; EMSA: 250 nM tRNA, 0-20 uM Elp3, 100 mM HEPES pH 7.5, 750 mM NaCl, 25 mM DTT, 20 °C 30 min; 5% TBE gel at 4 °C; conditions: protein: recombinant; tags: N-terminal 6xHis-TEV site (pET28a-tev); tRNA fold, annealed
T6 sequence: T4 sequence (D5VRB9 1-534)

T2 sequence (D5VRB9 whole entry M156W): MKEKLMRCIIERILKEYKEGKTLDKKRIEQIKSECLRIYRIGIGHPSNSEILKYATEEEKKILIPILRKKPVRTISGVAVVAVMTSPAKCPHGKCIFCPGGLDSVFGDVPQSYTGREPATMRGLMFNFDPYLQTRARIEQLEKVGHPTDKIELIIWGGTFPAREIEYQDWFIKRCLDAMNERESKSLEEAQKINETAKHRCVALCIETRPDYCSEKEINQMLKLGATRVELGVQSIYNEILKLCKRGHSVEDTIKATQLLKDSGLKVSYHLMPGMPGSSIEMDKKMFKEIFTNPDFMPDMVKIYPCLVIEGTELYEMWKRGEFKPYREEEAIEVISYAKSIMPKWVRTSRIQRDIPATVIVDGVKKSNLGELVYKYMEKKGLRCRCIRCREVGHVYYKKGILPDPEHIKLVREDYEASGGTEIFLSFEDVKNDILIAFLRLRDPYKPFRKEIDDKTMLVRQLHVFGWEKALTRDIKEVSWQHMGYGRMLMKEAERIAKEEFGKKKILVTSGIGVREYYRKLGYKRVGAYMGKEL
T5 sequence (D5VRB9 whole entry K302A): as the sequence (D5VRB9 whole entry M156W) above, with W156M, K302A counted along it
T3 sequence (D5VRB9 whole entry Y304A): as the sequence (D5VRB9 whole entry M156W) above, with W156M, Y304A counted along it
T1 sequence (D5VRB9 whole entry E207A): as the sequence (D5VRB9 whole entry M156W) above, with W156M, E207A counted along it

**Q.** Which results are given for C[S+](CC[C@H](N)C(=O)O)C[C@H]1O[C@@H](n2cnc3c(N)ncnc32)[C@H](O)[C@@H]1O (stereo partly drawn) [SAM]?
**A.** KD (Min Elp3 [1]): E207A (dark blue triangles), K302A (light blue squares), and Y304A (cyan triangles) mutants bind cofactor SAM; KD (Min Elp3 [2]): Elp3 M156W (light blue squares) binds cofactor SAM with comparable affinity to WT Elp3; KD (Min Elp3 [3]): Y304A (cyan triangles) mutants bind cofactor SAM with comparable affinity to WT Elp3; KD (Min Elp3 [4]): Elp3-SAM binding was measured by triplicate microscale thermophoresis (MST) assays; KD (Min Elp3 [5]): K302A (light blue squares), and Y304A (cyan triangles) mutants bind cofactor SAM

B1: tRNA ArgUCU (structured_RNA)
RNA: GGACCCGUAGCCUAGCCUGGAUAGGGCACCGGCCUUCUAAGCCGGGGGUCGGGGGUUCAAAUCCCCCCGGGUCCGCCA
**Q.** Does B1 bind (Min Elp3 WT)?
**A.** Result: binds

Source: article PMC13315578
